The text below walks through data of publication PMC11203978, “Discovery of Di(het)arylmethane and Dibenzoxanthene Derivatives as Potential Anticancer Agents” (International Journal of Molecular Sciences, 2024).

The IC50 is the point on the concentration scale where inhibition reaches its midpoint.

For one data set, the system named is A549. Description: MTT cytotoxicity, A549. The note with it: Homo sapiens, read-out: IC50 (µM) Cancer Cell Lines A549. Format: cell-based. An excerpt:
(§1) Cells and Materials. For the experiments, we used tumor cell cultures M-HeLa clone 11 (epithelioid carcinoma of the cervix, subline HeLa, clone M-HeLa), HuTu 80, human duodenal adenocarcinoma, Hep-2, human epithelial cells, SH-SY5Y, human neuroblast-like cells, A549, human lung adenocarcinoma, PA-1, human ovarian teratocarcinoma and MCF-7, a human mammary ductal adenocarcinoma from the collection of the Institute of Cytology, Russian Academy of Sciences (St. Petersburg, Russia); human liver cells (Chang liver) were from the collection and the Research Institute of Virology of the Russian Academy of Medical Sciences (Moscow, Russia).
(§2) MTT Assay. The cytotoxic effect on cells was determined using the colorimetric method of cell proliferation—the MTT test. NADP-H-dependent cellular oxidoreductase enzymes can, under certain conditions, reflect the number of viable cells. These enzymes reduce the tetrazolium dye (MTT) 3-(4,5-dimethylthiazol-2-yl)-2,5-diphenyl-tetrazolium bromide to insoluble blue-violet formazan, which crystallizes inside the cell. The amount of formed formazan is proportional to the number of cells with active metabolism. […] Optical density was recorded at 540 nm on an Invitrologic microplate reader (Novosibirsk, Russia). […]
(§3) Statistical analysis. The IC50 values were calculated using the MLA–Quest Graph™ IC50 Calculator (AAT Bioquest, Inc., Sunnyvale, CA, USA), 14 February 2022. […]

The test system of another data set is Chang Liver. Description: MTT cytotoxicity, normal Chang liver cells. The class given is cell-based, human. The note with it: Homo sapiens, Chang liver, 48 h incubation, read-out: IC50 (µM) Normal Cell Line Chang Liver.
Excerpt: as §1
(§4) MTT Assay. The cytotoxic effect on cells was determined using the colorimetric method of cell proliferation—the MTT test. NADP-H-dependent cellular oxidoreductase enzymes can, under certain conditions, reflect the number of viable cells. These enzymes reduce the tetrazolium dye (MTT) 3-(4,5-dimethylthiazol-2-yl)-2,5-diphenyl-tetrazolium bromide to insoluble blue-violet formazan, which crystallizes inside the cell. The amount of formed formazan is proportional to the number of cells with active metabolism. Cells were seeded on a 96-well Nunc plate at a concentration of 5 × 10^3 cells per well in a volume of 100 μL of medium and cultured in a CO2 incubator at 37 °C until a monolayer was formed. After the nutrient medium was removed, 100 µL of the test drug solutions at the given dilutions were added to the wells, which were prepared directly in the nutrient medium with the addition of 5% DMSO to improve solubility. After 48 h of incubation of the cells with the tested compounds, the nutrient medium was removed from the plates and 100 µL of the nutrient medium without serum with MTT at a concentration of 0.5 mg/mL was added and incubated for 4 h at 37 °C. Formazan crystals were added 100 µL of DMSO to each well. Optical density was recorded at 540 nm on an Invitrologic microplate reader (Novosibirsk, Russia). The experiments for all compounds were repeated three times.
(§5) Statistical analysis. The IC50 values were calculated using the MLA–Quest Graph™ IC50 Calculator (AAT Bioquest, Inc., Sunnyvale, CA, USA), 14 February 2022. Statistical analysis was performed with the Mann–Whitney test (p < 0.05). Tabular and graphical data contain averages and standard error.

The test system of another data set is HuTu 80. Kind of data set: MTT cytotoxicity, HuTu 80. The class given is cell-based, human.
Excerpt: as §1, §4, §5

A further data set concerns HuTu 80 cells. Description: Intracellular ROS, CellROX Deep Red flow cytometry. The class given is cell-based, human. The settings on record: IC50/2 and IC50. The method, then:
The apoptosis via the mitochondrial pathway also increases the production of reactive oxygen species (ROS). As mitochondria itself becomes the target of ROS, an increase in their production disrupts mitochondrial functions and culminates in irreversible cell damage. Therefore, the effect of lead compounds 6a and 5a at IC50/2 and IC50 concentrations on ROS production in HuTu 80 cells was evaluated using flow cytometry. […] Such an effect is not observed for intact cells in the presence of both compounds, indicating an increase in ROS production in cancer tissues.
Detection of Intracellular ROS. HuTU 80 cells were incubated with lead compounds at concentrations of IC50/2 and IC50 for 48 h. ROS generation was investigated using flow cytometry assay and CellROX® Deep Red flow cytometry kit. For this purpose, […] cells were harvested at 2000 rpm for 5 min and then washed twice with ice-cold PBS, followed by resuspension in 0.1 mL of medium without FBS, to which was added 0.2 μL of CellROX® Deep Red, which was followed by incubation at 37 °C for 30 min. The cells were washed three times and suspended in PBS. After that, the production of ROS in the cells was immediately monitored using flow cytometer (Guava easy Cyte, MERCK, Rahway, NJ, USA).

For the next data set, the system named is Hep-2. Description: MTT cytotoxicity, Hep-2. Format: cell-based. The note with it: Homo sapiens, read-out: IC50 (µM) Cancer Cell Lines Hep-2.
Excerpt: as §1, §2, §3

For `O=C(C[P+](c1ccccc1)(c1ccccc1)c1ccccc1)NCCC1c2c(ccc3ccccc23)Oc2ccc3ccccc3c21` [Compound 6a], the concentration for half-maximal inhibition (IC50) came to 5.47 ± 0.07 µM in the data set with A549; 41 ± 3.5 µM in the data set with Chang Liver; 1.7 ± 0.1 µM in the data set with HuTu 80 (Homo sapiens, HuTu80, 48 h, MTT, 48 h incubation, read-out: IC50 (µM) Cancer Cell Lines HuTu 80); 2.34 ± 0.01 µM with Hep-2. The “times more effective / more cytotoxic than the reference drug sorafenib” value with HuTu 80 (HuTu 80) is “three times more effective”. In addition, the “ROS production, CellROX Deep Red fluorescence intensity (in words)” value in the data set on HuTu 80 cells is “significant reliable increase”.
